Measured values: patent US10894038B2, “Indolizine derivatives, composition and methods of use” (Shanghai Fochon Pharmaceutical Co., Ltd., priority 2015, dated 2021)

What was measured:
[1] = molecular target: T1, URAT1 (Homo sapiens (Human), UniProt Q96S37); assay: URAT1 in vitro inhibition activity, Method A (14C-uric acid uptake in HEK293-URAT-4 cells); assay type: cell-based; conditions: 50 μM 14C-uric acid, 10 min uptake
Method: The potency of the compounds of formula (I) as inhibitors of the URAT1 was determined as follow.
Cell Lines were generated in WuXi AppTec (HEK293-URAT-4: Stable cell line of HEK293 which was transfected with pcDNA3.1-URAT (Human SLC22A12 cDNA Clone, Abgent-DC07943). HEK293-PCDNA-5: Negative control cell of HEK293 which was transfected with pcDNA3.1 empty vector.
Cells were seeded onto 24-well plates at the density of 2.0×10^5 cells per well. The cells were incubated at 37° C., 5% CO2 overnight. After approximately 24 hours culture, cells were used for uptake experiments. The culture medium were removed from the wells and the cells were incubated in 0.4 ml/well of Hank's balanced salt solution (HBSS) for 10 min. HBSS was replaced with 0.18 ml/well fresh HBSS. Compounds were 5 folds serial diluted in DMSO, and then 25 folds diluted in HBSS. Compounds diluted with HBSS (10 μl) were added to relevant well of cell plates, and plates were incubated at 37° C., 5% CO2 for 15 min. The final concentration of DMSO in the assay was 0.2%. 10 μl HBSS containing radioactively labeled Urate (^14C-uric acid) was added to each well. The final concentration of ^14C-uric acid in the assay medium was 50 μM. After 10 min, the assay medium was immediately removed. The cells were washed quickly with 0.5 ml pre-chilled HBSS twice. 0.1 M NaOH (0.4 ml) was added to lyse the cells for at least 20 min. The cell lysate was collected to a scintillation vial, and scintillant (4 ml) was added and the radioactivity was counted by a liquid scintillation counter. Inhibiton % data were calculated using the formula
[formula] CPD: Signal from a well containing a test compound HC (high control): Average of signals from HEK293-URAT-4 cells LC (low control): Average of signals from HEK293-PCDNA-5.
Target sequence in this assay (Q96S37 whole entry): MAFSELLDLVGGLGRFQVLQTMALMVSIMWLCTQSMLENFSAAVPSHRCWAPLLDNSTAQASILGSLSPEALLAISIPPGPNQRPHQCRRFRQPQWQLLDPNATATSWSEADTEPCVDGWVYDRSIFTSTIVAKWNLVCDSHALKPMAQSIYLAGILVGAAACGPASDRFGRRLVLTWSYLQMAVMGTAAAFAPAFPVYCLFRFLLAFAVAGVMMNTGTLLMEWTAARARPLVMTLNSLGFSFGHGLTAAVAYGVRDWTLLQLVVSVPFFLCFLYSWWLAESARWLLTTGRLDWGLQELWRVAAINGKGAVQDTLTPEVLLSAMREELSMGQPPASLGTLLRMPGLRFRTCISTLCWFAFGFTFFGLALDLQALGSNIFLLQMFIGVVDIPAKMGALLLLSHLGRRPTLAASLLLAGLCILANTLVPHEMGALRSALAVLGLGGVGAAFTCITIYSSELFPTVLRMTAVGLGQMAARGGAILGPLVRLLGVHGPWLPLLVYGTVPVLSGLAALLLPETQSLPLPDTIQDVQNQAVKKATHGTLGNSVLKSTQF

[2] = molecular target: T1, URAT1; assay: URAT1 in vitro inhibition activity, Method B (14C-uric acid uptake in HEK293-URAT1 cells); assay type: cell-based; conditions: 5.0 μmol/L 14C-uric acid, 2 min uptake
Method: HEK293-URAT1 cell Lines were donated by Japan Fuji Biomedical Research Institute. Negative control cell of HEK293 (MOCK cells) which was transfected with pcDNA3.1 empty vector. HEK293-URAT1 cell lines and MOCK cell lines were cultured in complete growth medium consisting of DMEM supplemented with 10% FBS, penicillin and streptomycin.
Preparation of working solution: Each stock solutions was diluted to different concentrations (6, 20, 60, 200 and 600 μmol/L) with DMSO as 200× working solution, which was then diluted to 2×compound working solution with HBSS (Cl^− free) buffer. Radiolabeled substrate ^14C-Uric acid solution was diluted with HBSS (Cl^− free) buffer to obtain 2× working solution which was mixed with an equal volume of 2× compound working solution to obtain the mixture of radiolabeled substrate and compound working solution.
HER293-URAT1 and MOCK cells were seeded onto 24-well plates at the density of 1.5×10^6 cells per well. The cells were incubated at 37° C., 5% CO2 overnight. After cultured for approximately 2 to 3 days, cells were used for the experiments. The culture medium were removed from the wells, and cells were washed with HBSS (Cl^− free) and incubated in 37° C. HBSS (Cl^− free) for 10 min. HBSS was replaced with 500 μL of the mixture of radiolabeled substrate and compound working solution. The final concentration of ^14C-Uric acid in the assay was 5.0 μmol/L. Plates were incubated at 37° C., 5% CO2 for 2 min, and the reaction was stopped by the addition of pre-chilled HBSS (Cl^− free) by washing three times. 400 μL NaOH ([…]) was added to lyse the cells and the cell lysate was collected to scintillation vials, and 3 ml scintillant (Aquasol-2, PerkinElmer) was added and after mixing completely, the radioactivity was counted by Tri-Carb 2910TR liquid scintillation counter. Each concentration of compounds, positive control and negative control were repeated in two wells (n=2). Inhibition % data were calculated using the formula: Inhibition=[100×(U−U0)/(Uc−U0)]%, and analyzed using Prism5 software.
U0: Average of signals of MOCK cells;
Uc: Average of signals of radiolabeled substrate. The half inhibition concentration of the tested compounds to URAT1 were analyzed using Prism 5 software.
Target sequence in this assay (Q96S37 whole entry, species assumed): as the sequence (Q96S37 whole entry) above

[3] = test system: potassium oxonate-induced hyperuricemia in rats; assay: Effect on potassium oxonate-induced hyperuricemia in rats (serum uric acid); assay type: in vivo, rat; conditions: male SD rats, 5 mg/kg oral; for serum uric acid levels, time after dosing 0.5 h: 0.5 h after dosing; for serum uric acid levels, time after dosing 1 h: 1 h after dosing; for serum uric acid levels, time after dosing 2 h: 2 h after dosing; for serum uric acid levels, time after dosing 3 h: 3 h after dosing; for serum uric acid levels, time after dosing 4 h: 4 h after dosing
Method: Healthy male SD rats, weighing 250±20 g, were used. In the experiment, except for 10 rats as normal control group were orally administered with distilled water, the others were orally administered with yeast extract (20 g/kg, qd×5 days). One hour after last administration, all the rats were intraperitoneal injection with 250 mg/kg potassium oxonate while normal control group was treated with an equal volume of 0.5% CMC-Na (injection volume of 2 ml/kg). After one hour, rats were anesthetized with isoflurane and the serum uric acid was determined by uric acid test strip. All the rats were divided into groups by uric acid. The model control group and experimental groups was given orally administration 0.5% CMC-Na or compounds with a dose of 10 ml/kg-bw. Phosphotungstic acid precipitation method was used to detect serum uric acids in inner canthus blood at 0.5, 1, 2, 3, 4 h after administration, respectively. Substantially, observing the effects of compounds on serum uric acids levels and calculating each of groups' AUC and the inhibition of uric acid increased area by the equation as follows: […]
As shown in the equation, AUC0 indicated the AUC of model control group, AUC1 indicated the AUC of therapy group, AUC2 indicated the AUC of normal control group.

| IC50 [1] [nM] | SMILES | IC50 [2] [nM] | serum uric acid levels, time after dosing 0.5 h [3] [µmol/L] | serum uric acid levels, time after dosing 1 h [3] [µmol/L] | serum uric acid levels, time after dosing 2 h [3] [µmol/L] | serum uric acid levels, time after dosing 3 h [3] [µmol/L] | serum uric acid levels, time after dosing 4 h [3] [µmol/L] |
| --- | --- | --- | --- | --- | --- | --- | --- |
| 66 | CC(C)(Sc1ccncc1-c1ccc(C#N)c2cccn12)C(=O)O [Example 2, 2-((3-(8-cyanoindolizin-5-yl)pyridin-4-yl)thio)-2-methylpropanoic acid] | – | – | – | – | – | – |
| 282 | CC(C)(Sc1ccncc1-c1ccc(C#N)c2ccc(Cl)n12)C(=O)O [Example 3, 2-((3-(3-chloro-8-cyanoindolizin-5-yl)pyridin-4-yl)thio)-2-methylpropanoic acid] | – | – | – | – | – | – |
| 68 | CC(C)(Sc1ccncc1-c1ccc(C#N)c2c(Cl)ccn12)C(=O)O [Example 4, 2-((3-(1-chloro-8-cyanoindolizin-5-yl)pyridin-4-yl)thio)-2-methylpropanoic acid] | – | – | – | – | – | – |
| – | N#Cc1ccc(-c2cnccc2SC2(C(=O)O)CCC2)c2cccn12 [Example 8, 1-((3-(5-cyanoindolizin-8-yl)pyridin-4-yl)thio)cyclobutane-1-carboxylic acid] | 55 | 449.8 ± 39.8 | 483.9 ± 62.9 | 451.2 ± 58.9 | 393.9 ± 68.6 | 358.3 ± 68.2 |
| – | CC(C)(Sc1ccncc1-c1ccc(C#N)n2cccc12)C(=O)O [Example 9, 2-((3-(5-cyanoindolizin-8-yl)pyridin-4-yl)thio)-2-methylpropanoic acid] | – | 432.1 ± 43.2 | 450.8 ± 40.9 | 385.5 ± 52.2 | 347.1 ± 46.8 | 336.3 ± 59.1 |
| – | N#Cc1ccc(-c2cnccc2SC2(C(=O)O)CCC2)c2ccc(Cl)n12 [Example 10, 1-((3-(3-chloro-5-cyanoindolizin-8-yl)pyridin-4-yl)thio)cyclobutane-1-carboxylic acid] | 424 | – | – | – | – | – |
| – | N#Cc1ccc(-c2cnccc2SC2(C(=O)O)CCC2)c2cc(Cl)cn12 [Example 11, 1-((3-(2-chloro-5-cyanoindolizin-8-yl)pyridin-4-yl)thio)cyclobutane-1-carboxylic acid] | 828 | – | – | – | – | – |
| – | N#Cc1ccc(-c2cnccc2SC2(C(=O)O)CCC2)c2cc(F)cn12 [Example 12, 1-((3-(5-cyano-2-fluoroindolizin-8-yl)pyridin-4-yl)thio)cyclobutane-1-carboxylic acid] | 271 | – | – | – | – | – |
| – | N#Cc1ccc(-c2cnccc2SC2(C(=O)O)CCC2)n2cc(Cl)cc12 [Example 13, 1-((3-(2-Chloro-8-cyanoindolizin-5-yl)pyridin-4-yl)thio)cyclobutane-1-carboxylic acid] | 26 | 487.2 ± 46.9 | 523.6 ± 50.4 | 422.0 ± 54.1 | 341.4 ± 69.4 | 295.5 ± 47.2 |
| – | CC(C)(Sc1ccncc1-c1ccc(C#N)c2cc(Cl)cn12)C(=O)O [Example 14, 2-((3-(2-chloro-8-cyanoindolizin-5-yl)pyridin-4-yl)thio)-2-methylpropanoic acid] | 30 | 476.3 ± 53.4 | 489.5 ± 83.1 | 385.8 ± 68.2 | 337.2 ± 72.4 | 285.4 ± 47.7 |
| – | N#Cc1ccc(-c2cnccc2SC2(C(=O)O)CCC2)n2cc(Br)cc12 [Example 15, 1-((3-(2-bromo-8-cyanoindolizin-5-yl)pyridin-4-yl)thio)cyclobutane-1-carboxylic acid] | 29 | 476.8 ± 61.7 | 496.3 ± 74.8 | 401.7 ± 52.9 | 331.3 ± 70.5 | 278.0 ± 46.0 |
| – | CC(C)(Sc1ccncc1-c1ccc(C#N)c2cc(Br)cn12)C(=O)O [Example 16, 2-((3-(2-bromo-8-cyanoindolizin-5-yl)pyridin-4-yl)thio)-2-methylpropanoic acid] | – | 460.6 ± 46.5 | 491.9 ± 77.4 | 380.6 ± 47.4 | 293.9 ± 42.1 | 264.7 ± 38.8 |
| – | N#Cc1cc2c(C#N)ccc(-c3cnccc3SC3(C(=O)O)CCC3)n2c1 [Example 17, 1-((3-(2,8-dicyanoindolizin-5-yl)pyridin-4-yl)thio)cyclobutane-1-carboxylic acid] | 45 | 454.4 ± 39.8 | 458.1 ± 66.7 | 432.2 ± 67.6 | 403.0 ± 70.0 | 340.1 ± 56.0 |
| – | CS(=O)(=O)c1cc2c(C#N)ccc(-c3cnccc3SC3(C(=O)O)CCC3)n2c1 [Example 19, 1-((3-(8-cyano-2-(methylsulfonyl)indolizin-5-yl)pyridin-4-yl)thio)cyclobutane-1-carboxylic acid] | 332 | – | – | – | – | – |
| – | N#Cc1ccc(-c2cnccc2SC2(C(=O)O)CCC2)n2c(F)ccc12 [Example 20, 1-((3-(8-Cyano-3-fluoroindolizin-5-yl)pyridin-4-yl)thio)cyclobutane-1-carboxylic acid] | 34 | – | – | – | – | – |
| – | N#Cc1ccc(-c2cnccc2SC2(C(=O)O)CCC2)n2ccc(F)c12 [Example 21, 1-((3-(8-cyano-1-fluoroindolizin-5-yl)pyridin-4-yl)thio)cyclobutane-1-carboxylic acid] | 85 | – | – | – | – | – |
| – | N#Cc1ccc(-c2cnccc2SC2(C(=O)O)CCC2)n2c(Cl)ccc12 [Example 23, 1-((3-(3-chloro-8-cyanoindolizin-5-yl)pyridin-4-yl)thio)cyclobutane-1-carboxylic acid] | 89 | – | – | – | – | – |
| – | COCC(C)(Sc1ccncc1-c1ccc(C#N)c2cccn12)C(=O)O (stereo not drawn) [Example 31, 2-((3-(8-cyanoindolizin-5-yl)pyridin-4-yl)thio)-3-methoxy-2-methylpropanoic acid] | 504 | – | – | – | – | – |
